Each block holds one molecule with its values, some of them ahead of it.
How the values were obtained:
[1] = system: subcutaneous 22Rv1 human prostate cancer xenograft; assay: Efficacy study in the 22Rv1 xenograft prostate cancer model; format: in vivo, male BALB/c nude mice; conditions: castrated mice, 21 days; doses per Table 1: Cmpd Str (I) 1.25 mg/kg p.o. BID or 10 mg/kg p.o. Q7D; enzalutamide 30 mg/kg p.o. QD; docetaxel 10 mg/kg i.p. Q7D; ABT199 100 mg/kg p.o. QD
Procedure: The objective of this study was to evaluate the in vivo therapeutic efficacy of the compound of structure (I) or a pharmaceutically acceptable salt or zwitterionic form thereof in the treatment of a subcutaneous 22Rv1 human prostate cancer xenograft model. For the 22Rv1 model, efficacy of the compound of structure (I) was evaluated in male BALB/c nude mice. Cobalt-60 irradiation of all mice was performed 2 days before the tumor inoculation at 2 Gy (1 Gy=100 rads). Each mouse was inoculated at the right flank with 1×10^7 tumor cells in 0.1 ml of PBS mixed with matrigel (1:1). The date of tumor cell inoculation was denoted as day 0.
Castration was performed when mean tumor volume reached approximately 200 mm^3. Mice were anesthetized with ketamine/xylazine; surgical castration was performed via a midline scrotal incision allowing bilateral access to the hemiscrotal contents; after exposing each testicle, a 6-0 Vicryl suture was used to ligate the spermatic cord and then remove the testicle; the scrota and skin was then closed with 6-0 Vicryl suture, separately. Treatments started when the mean tumor volume re-grew to approximately 100 mm^3.
After tumors reached the appropriate size, approximately 100-200 mm^3, mice were randomized into treatment groups 1-11, which are shown in Table 1. Each treatment was administered starting on day 15, at a dosing volume of 5 μL/g and continued for 21 days (or 22 days for groups with treatment at Q7D). For groups with treatment at Q7D×3 weeks, dosing was performed on days 1, 8, and 15 post-randomization, and the study was terminated on day 22 post randomization. The combined treatment intervals were each 0 h, and the interval for BID was 8 h. Randomization was performed based on the “Matched distribution” method (StudyDirector™ software, version 3.1.399.19) randomized block design.
Tumor volumes were measured twice per week after randomization in two dimensions using a caliper, and the volume was expressed in mm^3 using the formula: “V=(L×W×W)/2,” where V is tumor volume, L is tumor length (the longest tumor dimension) and W is tumor width (the longest tumor dimension perpendicular to L). The average tumor volume for each group, as a percentage of the average tumor volume of the control group (group 1), is shown in FIG. 6. […] The percentage shown in FIG. 7 (% T/C) is calculated as mean(T)/mean(C)*100%, with “T” representing tumor volume and “C” representing tumor volume for group 1.
T and C are the mean tumor volume (or weight) of the treated groups and control group (group 1), respectively, on a given day. The percentages shown in FIG. 10 are calculated as % ΔT/C=(mean(T)−mean(T0))/(mean(C)−mean(C0))*100%, with “0” indicating the initial timepoint.

PC3 cells = assay: Cell viability assay in PC3 prostate cancer cells; format: cell-based; conditions: Homo sapiens, PC-3, alvocidib 3.9 nM-1000 nM
Procedure: (§1) The compound of structure (I), and pharmaceutically acceptable salts and zwitterionic forms thereof, is converted in vivo to alvocidib (see U.S. Patent Publication No. US 2016/0340376, the full disclosure of which is hereby incorporated by reference in its entirety). Therefore, the in vitro effects of alvocidib were evaluated in multiple prostate cancer cell lines with varied sensitivity to androgen. PC3 is an AR-negative prostate cancer cell line with little to no expression of PSA and low sensitivity to androgens. VCAP is a prostate cancer cell line that is positive for ARv7, and can grow in an androgen-independent manner. LNCAP is an androgen-dependent prostate cancer cell line. 22Rv1 is a prostate cancer cell line that is positive for ARv7, has low sensitivity to androgen, and is derived from a xenograft that was serially propagated in mice after castration-induced regression and relapse of the parental, androgen-dependent CWR22 xenograft. […] Cell viability may be assessed, for example, using CellTiter-Glo according to manufacturer protocol.

[2] = system: LNCaP cells (caspase 3 cleavage); assay: Cell death by caspase 3 cleavage Western blot in LNCaP cells; format: cell-based, human; conditions: 100 nM, 48 hours, 10% serum
Procedure: LNCaP cells were treated with 100 nM alvocidib for 48 hours in regular 10% serum conditions. Cells were collected by scraping, washed in PBS, and lysed using sonication in RIPA buffer supplemented with protease and phosphatase inhibitors. […] of protein was loaded into a 4-12% gel, and transferred to a PVDF membrane. Blocking and staining was performed in 5% milk. […] Anti-actin was used as a loading control.

[3] = Phase I dose-escalation study in patients with advanced solid tumors: plasma PK; format: in vivo, human; conditions: for Tmax: plasma alvocidib, Cohort 5, 6 mg BID oral compound of structure (I) (Formulation No. 401-01)
Procedure: Plasma PK parameters of compound of structure (I) and alvocidib were evaluated in Cohorts 1-5 at specific timepoints during the study. Blood was collected from patients in Cohorts 1-5 according to the pharmacokinetic sampling schedule described in Table 9.
PK parameters were estimated using standard noncompartmental methods. Actual sample collection times were used rather than scheduled collection times. Plasma concentrations below the limit of quantification were treated as 0. Imbedded missing plasma concentrations (e.g., missing values between two observed values) were estimated using linear […]. This is consistent with using the trapezoidal rule to calculate AUC. Other missing plasma concentrations were excluded from calculations to estimate PK parameters.

[4] = PK analysis in PC-3 mouse xenograft model (plasma and tumor, LC-MS/MS); format: in vivo; conditions: 24 hours after oral gavage of compound of structure (I) 7.5 or 15 mg/kg; PC-3 xenograft mice
22Rv1 cells = assay: Cell viability assay in 22Rv1 prostate cancer cells; format: cell-based; conditions: Homo sapiens, alvocidib 0.0026 nM-1000 nM
Procedure: as §1

LNCaP cells = assay: Cell viability assay in LNCaP prostate cancer cells; format: cell-based; conditions: Homo sapiens, alvocidib 3.9 nM-1000 nM
Procedure: as §1

[5] = system: androgen receptor (phospho- and total-AR) in 22Rv1 and LNCaP cells; assay: Immunoblotting of androgen receptor in serum-stimulated prostate cancer cells; format: cell-based, human; conditions: 80 nM or 160 nM, 24 hours of treatment, serum stimulated 1 hour before collection
Procedure: In a first experiment to evaluate the effects of alvocidib on serum stimulated prostate cancer cells, androgen receptor expression was assessed by immunoblotting. […] The prostate cancer cells, 22Rv1 or LNCaP, were treated with DMSO or alvocidib (80 nM or 160 nM), for either 3 hours or 24 hours, and were serum stimulated one hour prior to sample collection (or the cells were serum starved as a control).

[6] = system: TMPRSS2 expression in 22Rv1 cells; assay: Quantitative real-time PCR of TMPRSS2 mRNA in serum-stimulated 22Rv1 cells; format: cell-based, human; conditions: 80 nM or 160 nM, 3 or 24 hours, 22Rv1 cells serum stimulated 1 hour before collection
[7] = system: PSA expression in 22Rv1 cells; assay: PSA expression in serum-stimulated 22Rv1 cells; format: cell-based, human; conditions: 80 nM or 160 nM, 24 hours
Procedure: The 22Rv1 cells were treated with DMSO or alvocidib (80 nM or 160 nM) for 24 hours, and serum stimulated either 3 hours or 23 hours following treatment (or the cells were serum starved as a control).

VCAP cells = assay: Cell viability assay in VCAP prostate cancer cells; format: cell-based; conditions: Homo sapiens, alvocidib 3.9 nM-1000 nM
Procedure: as §1

PSA in LNCaP cells = assay: PSA protein level by Western blot in LNCaP cells; format: cell-based, human; conditions: 25 nM or 100 nM, 48 hours, vs vehicle
Procedure: (§2) On the day of the treatment, the media was replaced with 10 mL of fresh media. […] Cells were collected by scraping, washed in PBS, and lysed using sonication in RIPA buffer supplemented with protease and phosphatase inhibitors. […] of protein was loaded into a 4-12% gel, and transferred to a nitrocellulose membrane. Blocking, anti-actin, and secondary staining was done in 5% milk. Anti-PSA antibody was diluted in BSA.

[8] = system: RNA Pol II phosphorylation in 22Rv1 cells; assay: RNA Pol II phosphorylation by flow cytometry in 22Rv1 cells; format: cell-based, human; conditions: 80 nM or 160 nM, three hours, 10% serum stimulated 1 hour before collection; vs DMSO
Procedure: To evaluate the effects of alvocidib on serum-stimulated prostate cancer cells, RNA Polymerase (Pol) II phosphorylation was assessed by flow cytometry. The prostate cancer cells, 22Rv1 cells, were treated with DMSO or alvocidib (80 nM or 160 nM) for three hours, and were serum stimulated (10%) one hour prior to sample collection. Goat anti-rabbit IgG H&L was used as an isotype control.

PSA in VCaP cells = assay: PSA protein level by Western blot in VCaP cells; format: cell-based; conditions: 25 nM or 100 nM, 48 hours, vs vehicle
Procedure: as §2

SMILES: CC1(C)CCC(CN2CCN(c3ccc(C(=O)NS(=O)(=O)c4ccc(NCC5CCOCC5)c([N+](=O)[O-])c4)c(Oc4cnc5[nH]ccc5c4)c3)CC2)=C(c2ccc(Cl)cc2)C1 [venetoclax]
anti-cancer activity in the 22Rv1 xenograft model (tumor growth) [1]: not active

SMILES: CC(=O)O[C@@]12CO[C@@H]1C[C@H](O)[C@@]1(C)C(=O)[C@H](O)C3=C(C)[C@@H](OC(=O)[C@H](O)[C@@H](NC(=O)OC(C)(C)C)c4ccccc4)C[C@@](O)([C@@H](OC(=O)c4ccccc4)[C@H]21)C3(C)C [docetaxel, 1,7β,10β-trihydroxy-9-oxo-5β,20-epoxytax-11-ene-2α,4,13α-triyl 4-acetate 2-benzoate 13-{(2R,3S)-3-[(tert-butoxycarbonyl)amino]-2-hydroxy-3-phenylpropanoate}]
anti-cancer activity in the 22Rv1 xenograft model (tumor growth) [1]: not active

SMILES: CNC(=O)c1ccc(N2C(=S)N(c3ccc(C#N)c(C(F)(F)F)c3)C(=O)C2(C)C)cc1F [enzalutamide, 4-(3-(4-cyano-3-(trifluoromethyl)phenyl)-5,5-dimethyl-4-oxo-2-thioxoimidazolidin-1-yl)-2-fluoro-N-methylbenzamide]
anti-cancer activity in the 22Rv1 xenograft model (tumor growth) [1]: not active

IC50 (PC3 cells): 102 nM
accumulation of alvocidib in plasma ([3]; Cohort 1, 1 mg QD oral Formulation No. 401-01, Subject 104, after 24 hours on day 14): some accumulation
change in average Cmax and AUC of alvocidib from day 1 to day 14 ([3]; Cohort 2, 1 mg BID oral Formulation No. 401-01): marked increase
Tmax ([3]; Cycle 1 Day 1, Mean of subjects 501-503): 60 min
Tmax ([3]; Cycle 1 Day 1, Subject 501): 30 min
Tmax ([3]; Cycle 1 Day 1, Subject 502): 120 min
Tmax ([3]; Cycle 1 Day 1, Subject 503): 30 min
Tmax ([3]; Cycle 1 Day 14, Mean of subjects 501-503): 60 min
Tmax ([3]; Cycle 1 Day 14, Subject 501): 30 min
Tmax ([3]; Cycle 1 Day 14, Subject 502): 120 min
Tmax ([3]; Cycle 1 Day 14, Subject 503): 30 min
retention of alvocidib in plasma and tumor [4]: retained in plasma and tumor tissues
IC50 (22Rv1 cells): 169 nM
IC50 (LNCaP cells): 31.8 nM
IC50 (VCAP cells): 34.5 nM
SMILES: CN1CC[C@H](c2c(O)cc(O)c3c(=O)cc(-c4ccccc4Cl)oc23)[C@H](O)C1 [alvocidib, 2-(2-chlorophenyl)-5,7-dihydroxy-8-[(3S,4R)-3-hydroxy-1-methylpiperidin-4-yl]chromen-4-one]
cell death, as indicated by caspase 3 cleavage [2]: induced cell death
phospho- and total-AR protein levels [5]: lowers phospho- and total-AR levels
serum-stimulated induction of TMPRSS2 expression [6]: inhibited serum-stimulated induction of TMPRSS2
serum stimulated induction of PSA expression [7]: inhibited serum stimulated induction of PSA
PSA expression at protein level (PSA in LNCaP cells): inhibited PSA expression
RNA Pol II phosphorylation staining (flow cytometry) [8]: dose-dependent reduction
PSA expression at protein level (PSA in VCaP cells): inhibited PSA expression
